In patent US10294202B2, “Pyrrolidinones as herbicides” (FMC Corporation, priority 2013, dated 2019):

Key:
[1] = test system: barnyardgrass; assay: Test A pre-/postemergence herbicide test; type: in vivo, Echinochloa crus-galli
Outline: (§1)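 Approximately 10 days after treatment in the greenhouse, plants were compared with untreated controls and given a 0–100 visual injury rating. Applications: preemergence directed soil spray; postemergence on 2–10 cm plants at the one- to two-leaf stage.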

[2] = test system: giant foxtail; assay: Test A pre-/postemergence herbicide test; type: in vivo, Setaria faberii
Outline: as §1

[3] = test system: corn; assay: Test A pre-/postemergence herbicide test; type: in vivo, Zea mays
Outline: as §1

[4] = test system: rice; assay: Test B flooded paddy test; type: in vivo, Oryza sativa; conditions: 250 g ai/ha, Flood; scale of 0 to 100 where 0 is no effect and 100 is complete control
Outline: (§2)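 In-water application to pots flooded 3 cm deep, plants at 2-leaf stage. Held in greenhouse 13–15 days at constant flood depth. Scored 0–100 by eye against controls.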

[5] = test system: sedge, umbrella; assay: Test B flooded paddy test; type: in vivo, Cyperus difformis; conditions: 250 g ai/ha, Flood; scale of 0 to 100 where 0 is no effect and 100 is complete control
Outline: as §2

[6] = test system: ducksalad; assay: Test B flooded paddy test; type: in vivo, Heteranthera limosa; conditions: 250 g ai/ha, Flood; scale of 0 to 100 where 0 is no effect and 100 is complete control
Outline: as §2

[7] = test system: barnyardgrass; assay: Test B flooded paddy test; type: in vivo, Echinochloa crus-galli; conditions: 250 g ai/ha, Flood; scale of 0 to 100 where 0 is no effect and 100 is complete control
Outline: as §2

[8] = test system: blackgrass; assay: Test C pre-/postemergence herbicide test; type: in vivo, Alopecurus myosuroides; conditions: Preemergence; for Blackgrass plant response rating: 31 g ai/ha
Outline: (§3)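 Plants grown and held in a greenhouse for 13 to 15 days post-spray, then rated 0–100 by visual comparison with controls. Pre treatments targeted seeds in loam and sand; post treatments targeted 1- to 4-leaf plants in peat-based potting medium.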

[9] = test system: crabgrass, large; assay: Test C pre-/postemergence herbicide test; type: in vivo, Digitaria sanguinalis; conditions: Preemergence; for Crabgrass, Large plant response rating: 31 g ai/ha
Outline: as §3

[10] = test system: morningglory; assay: Test C pre-/postemergence herbicide test; type: in vivo, Ipomoea coccinea; conditions: Preemergence
Outline: as §3

[11] = test system: ragweed; assay: Test C pre-/postemergence herbicide test; type: in vivo, Ambrosia elatior; conditions: Preemergence
Outline: as §3

[12] = test system: soybean; assay: Test C pre-/postemergence herbicide test; type: in vivo, Glycine max; conditions: Preemergence
Outline: as §3

[13] = Postemergence, 125 g ai/ha, 0 to 100 scale, 0 no effect, 100 complete control
[14] = Postemergence, 500 g ai/ha, 0 to 100 scale (0 no effect, 100 complete control)
[15] = Preemergence, 125 g ai/ha, visual rating on 0 to 100 scale (0 no effect, 100 complete control)
[16] = preemergence, 500 g ai/ha, 0 to 100 scale
[17] = scale 0 to 100 (0 no effect, 100 complete control)
[18] = 125 g ai/ha, scale 0 to 100 (0 no effect, 100 complete control)
[19] = 250 g ai/ha, scale 0 to 100 (0 no effect, 100 complete control)
[20] = Postemergence, 1000 g ai/ha, 0 to 100 scale (0 no effect, 100 complete control)
[21] = Preemergence, 1000 g ai/ha, visual rating on 0 to 100 scale (0 no effect, 100 complete control), approx. 10 days

| SMILES | Plant response rating, Rice [4] | Plant response rating, Sedge, Umbrella [5] | Plant response rating, Ducksalad [6] | Plant response rating, Barnyardgrass [7] | Blackgrass plant response rating [8, 17] | Plant response rating, Blackgrass ([8]; 62 g ai/ha, scale 0 to 100) | Plant response rating, Blackgrass [8, 18] | Plant response rating, Blackgrass [8, 19] | Crabgrass, Large plant response rating [9, 17] | Plant response rating, Crabgrass, Large ([9]; 62 g ai/ha, scale 0 to 100) | Plant response rating, Crabgrass, Large [9, 18] | Plant response rating, Crabgrass, Large [9, 19] | Plant response rating, Morningglory ([10]; 62 g ai/ha, scale 0 to 100) | Plant response rating, Morningglory [10, 18] | Plant response rating, Ragweed ([11]; 62 g ai/ha, scale 0 to 100) | Plant response rating, Ragweed [11, 18] | Plant response rating, Soybean ([12]; 62 g ai/ha, scale 0 to 100) | Plant response rating, Soybean [12, 18] | further results |
| --- | --- | --- | --- | --- | --- | --- | --- | --- | --- | --- | --- | --- | --- | --- | --- | --- | --- | --- | --- |
| O=C1NCC(c2cccc(Br)c2)C1C(=O)Nc1cccc(F)c1F (stereo not drawn) [Compound 64] | 15 | 40 | 80 | 0 | 0 | 5 | 5 | 30 | 85 | 90 | 95 | 95 | 20 | 20 | 0 | 30 | 35 | 40 | Plant response rating, Barnyardgrass [1, 13]: 60; Plant response rating, Barnyardgrass [1, 14]: 80; Barnyardgrass plant response rating [1, 15]: 80; Plant response rating, Barnyardgrass ([1]; preemergence, 500 g ai/ha, 0 to 100 scale (0 no effect, 100 complete control)): 90; Plant response rating, Foxtail, Giant [2, 13]: 70; Plant response rating, Foxtail, Giant [2, 14]: 80; Foxtail, Giant plant response rating [2, 15]: 80; Plant response rating, Foxtail, Giant [2, 16]: 90; Plant response rating, Corn [3, 13]: 30; Plant response rating, Corn [3, 14]: 40; Corn plant response rating [3, 15]: 20; Plant response rating, Corn [3, 16]: 20 |
| Cc1ccccc1NC(=O)C1C(=O)NCC1c1cc(F)c(F)c(F)c1 (racemic) [Compound 35] | 0 | 0 | 80 | 0 | 0 | 0 | 5 | 50 | 95 | 98 | 100 | 100 | 10 | 10 | 0 | 0 | 0 | 0 | Plant response rating, Barnyardgrass [1, 20]: 90; Plant response rating, Barnyardgrass [1, 21]: 90; Plant response rating, Foxtail, Giant [2, 20]: 90; Plant response rating, Foxtail, Giant [2, 21]: 90; Plant response rating, Corn [3, 20]: 20; Plant response rating, Corn [3, 21]: 20 |
